Laboratory results as given in paper PMC11747885, “Potent inhibitors of the human RNA ligase Rlig1 highlights its role in RNA integrity maintenance under oxidative cellular stress” (Chemical Science, 2025).
Where “and” joins values, the source holds several entries; their conditions need not be identical. Equal entries are not always repeated. Where two headings read alike, the source gives them in different places. Values belong to the compound of their own block, whether it stands above or below them.

Assays:
Rlig1-AMP = molecular target: T1, Rlig1-AMP (Homo sapiens, UniProt Q8N999); test: FRET-based high-throughput screening of inhibitors for Rlig1-AMP; format: biochemical; details: HTS hits; for Raw data [w Enyzm]: with enzyme; for Raw data [w/o Enzym]: without enzyme
T1 construct: made in house; host or cells: E. coli BL21 (DE3), pET15b-Rlig1

wild-type h5-HT1B = molecular target: wild-type h5-HT1B; set-up: method as in MedChemExpress; details: ref MedChemExpress; cited from earlier work
wild-type h5-HT1D = molecular target: wild-type h5-HT1D; set-up: method as in MedChemExpress; details: ref MedChemExpress; cited from earlier work
[1] = DMSO; ref MedChemExpress; cited from earlier work
HIV-1IIIB = test system: HIV-1IIIB; set-up: method as in MedChemExpress; details: ref MedChemExpress; cited from earlier work
HIV-1(74V) = test system: HIV-1(74V); set-up: method as in MedChemExpress; details: ref MedChemExpress; cited from earlier work
HIV-1KM018 = test system: HIV-1KM018; set-up: method as in MedChemExpress; details: ref MedChemExpress; cited from earlier work
[2] = DMSO; ref MedChemExpress; cited from earlier work; remark: listed apart in the source
Syk = test system: Syk; set-up: method as in MedChemExpress; details: ref MedChemExpress; cited from earlier work
PI3Kα = test system: PI3Kα; set-up: method as in MedChemExpress; details: ref MedChemExpress; cited from earlier work
VEGFR1 = test system: VEGFR1; set-up: method as in MedChemExpress; details: ref MedChemExpress; cited from earlier work
VEGFR2 = test system: VEGFR2; set-up: method as in MedChemExpress; details: ref MedChemExpress; cited from earlier work
FGFR1 = test system: FGFR1; set-up: method as in MedChemExpress; details: ref MedChemExpress; cited from earlier work
FGFR2 = test system: FGFR2; set-up: method as in MedChemExpress; details: ref MedChemExpress; cited from earlier work
PDGFRβ = test system: PDGFRβ; set-up: method as in MedChemExpress; details: ref MedChemExpress; cited from earlier work
Fgr = test system: Fgr; set-up: method as in MedChemExpress; details: ref MedChemExpress; cited from earlier work
Fyn = test system: Fyn; set-up: method as in MedChemExpress; details: ref MedChemExpress; cited from earlier work
Hck = test system: Hck; set-up: method as in MedChemExpress; details: ref MedChemExpress; cited from earlier work
Lck = test system: Lck; set-up: method as in MedChemExpress; details: ref MedChemExpress; cited from earlier work
Lyn = test system: Lyn; set-up: method as in MedChemExpress; details: ref MedChemExpress; cited from earlier work
Src = test system: Src; set-up: method as in MedChemExpress; details: ref MedChemExpress; cited from earlier work
Yes = test system: Yes; set-up: method as in MedChemExpress; details: ref MedChemExpress; cited from earlier work
ETB receptor = molecular target: ETB receptor; set-up: method as in MedChemExpress; details: inhibition of ET-1 binding to human Girardi heart cells (ETB); ref MedChemExpress; cited from earlier work
ETA receptors = molecular target: ETA receptors; set-up: method as in MedChemExpress; details: binding to ETA receptors in SK-N-MC cells; ref MedChemExpress; cited from earlier work
[3] = molecular target: human DNA topoisomerase I; set-up: method as in MedChemExpress; details: ref MedChemExpress; cited from earlier work
CDK7 = molecular target: CDK7; set-up: method as in MedChemExpress; details: ref MedChemExpress; cited from earlier work
rat brain PKC = test system: rat brain PKC; set-up: method as in MedChemExpress; details: ref MedChemExpress; cited from earlier work
PKC-α = test system: PKC-α; set-up: method as in MedChemExpress; details: ref MedChemExpress; cited from earlier work
PKC-βI = test system: PKC-βI; set-up: method as in MedChemExpress; details: ref MedChemExpress; cited from earlier work
PKC-βII = test system: PKC-βII; set-up: method as in MedChemExpress; details: ref MedChemExpress; cited from earlier work
PKC-γ = test system: PKC-γ; set-up: method as in MedChemExpress; details: ref MedChemExpress; cited from earlier work
PKC-ε = test system: PKC-ε; set-up: method as in MedChemExpress; details: ref MedChemExpress; cited from earlier work
T-type Ca2+ channels = test system: T-type Ca2+ channels; set-up: method as in MedChemExpress; details: T-type currents; ref MedChemExpress; cited from earlier work
L-type currents = test system: L-type currents; set-up: method as in MedChemExpress; details: ref MedChemExpress; cited from earlier work
FLT3 wild type = test system: FLT3 wild type; set-up: method as in MedChemExpress; details: ref MedChemExpress; cited from earlier work
FLT3-D835Y = test system: FLT3-D835Y; set-up: method as in MedChemExpress; details: ref MedChemExpress; cited from earlier work
[4] = test system: other members of the PLK family; set-up: method as in MedChemExpress; details: ref MedChemExpress; cited from earlier work
Aurora A = test system: Aurora A; set-up: method as in MedChemExpress; details: ref MedChemExpress; cited from earlier work
Aurora B = test system: Aurora B; set-up: method as in MedChemExpress; details: ref MedChemExpress; cited from earlier work
KDR = test system: KDR; set-up: method as in MedChemExpress; details: ref MedChemExpress; cited from earlier work
FLT-3 = test system: FLT-3; set-up: method as in MedChemExpress; details: ref MedChemExpress; cited from earlier work
SirT2 = test system: SirT2; set-up: method as in MedChemExpress; details: ref MedChemExpress; cited from earlier work
SirT5 = test system: SirT5; set-up: method as in MedChemExpress; details: ref MedChemExpress; cited from earlier work
DNA topoisomerase II = molecular target: DNA topoisomerase II; set-up: method as in MedChemExpress; details: ref MedChemExpress; cited from earlier work
[5] = difference of raw data w/o and w enzyme
[6] = difference of raw data without and with enzyme

T1 sequence (Q8N999 whole entry): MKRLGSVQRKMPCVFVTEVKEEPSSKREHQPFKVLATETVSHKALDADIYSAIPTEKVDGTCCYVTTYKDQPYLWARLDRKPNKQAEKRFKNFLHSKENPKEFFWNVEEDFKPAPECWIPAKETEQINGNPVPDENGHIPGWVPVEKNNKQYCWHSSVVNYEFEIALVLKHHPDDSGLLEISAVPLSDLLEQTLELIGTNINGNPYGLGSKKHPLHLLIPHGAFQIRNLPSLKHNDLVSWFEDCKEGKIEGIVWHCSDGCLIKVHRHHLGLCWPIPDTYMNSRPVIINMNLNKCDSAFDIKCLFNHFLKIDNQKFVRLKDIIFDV

1-D Distance.npi (Rlig1-AMP; MedChemExpress library): 75.2571
1-D Distance (Rlig1-AMP; [6]): 1704
Raw data [w Enyzm] (Rlig1-AMP): 8619
Raw data [w/o Enzym] (Rlig1-AMP): 10323
Compound: CCCC[C@@H](NC(=O)[C@@H](Cc1cn(C(=O)OC)c2ccccc12)NC(=O)[C@H](CC(C)(C)C)NC(=O)N1[C@H](C)CCC[C@@H]1C)C(=O)[O-].[Na+] [BQ-788]
IC50 (ETB receptor): 0.0012 µM
IC50 (ETA receptors): 1.3 µM

1-D Distance (Rlig1-AMP; [5]): 603
1-D Distance.npi (Rlig1-AMP; normalized value (npi)): 93.9141
Raw data [w Enyzm] (Rlig1-AMP): 7489
Raw data [w/o Enzym] (Rlig1-AMP): 8092
Compound: CN1CCC(Nc2nc(Nc3ccc(Oc4ccccc4)cc3)c3c(=O)[nH]cc(Br)c3n2)CC1 [G-749]
IC50 (FLT3 wild type): 0.0004 µM
IC50 (FLT3-D835Y): 0.0006 µM

Further lines, the compound ahead of its results:

Compound: COc1ccc(NC(=O)c2ccc(-c3ccncc3)c(C)c2)cc1N1CCN(C)CC1 [GR 125743]
1-D Distance (Rlig1-AMP; [5]): 1429
Raw data [w Enyzm] (Rlig1-AMP): 8833
Raw data [w/o Enzym] (Rlig1-AMP): 10262
pKi (wild-type h5-HT1B): 8.85
pKi (wild-type h5-HT1D): 8.31
solubility [1]: 100 mg/mL and 240.08 mM

Compound: O=C(O)[C@H]1O[C@@H](Oc2cc3oc(-c4ccc(O)cc4)cc(=O)c3c(O)c2O)[C@H](O)[C@@H](O)[C@@H]1O [Scutellarin]
1-D Distance (Rlig1-AMP; [6]): 1804
Raw data [w Enyzm] (Rlig1-AMP): 9318
Raw data [w/o Enzym] (Rlig1-AMP): 11122
EC50 (HIV-1IIIB): 26 µM
EC50 (HIV-1(74V)): 253 µM
EC50 (HIV-1KM018): 136 µM
solubility [2]: 100 mg/mL and 216.28 mM

Compound: Cc1nn(-c2ccnc(Nc3ccc(-c4csc5c(=O)cc(N6CCOCC6)oc45)cc3)n2)cc1CN1CCC1 [SRX3207]
1-D Distance.npi (Rlig1-AMP; MedChemExpress library): 89.3143
1-D Distance (Rlig1-AMP; [6]): 966
Raw data [w Enyzm] (Rlig1-AMP): 7329
Raw data [w/o Enzym] (Rlig1-AMP): 6363
IC50 (Syk): 0.0107 µM
IC50 (PI3Kα): 0.861 µM
solubility [2]: 5 mg/mL and 9.00 mM

Compound: Cc1cc(-c2cc(O)ccc2Cl)cc2nnc(Nc3ccc(OCCN4CCCC4)cc3)nc12.Cl [TG 100572 (Hydrochloride)]
1-D Distance.npi (Rlig1-AMP; MedChemExpress library): 103.738
1-D Distance (Rlig1-AMP; [6]): 38
Raw data [w Enyzm] (Rlig1-AMP): 3376
Raw data [w/o Enzym] (Rlig1-AMP): 3338
IC50 (VEGFR1): 0.002 µM
IC50 (VEGFR2): 0.007 µM
IC50 (FGFR1): 0.002 µM
IC50 (FGFR2): 0.016 µM
IC50 (PDGFRβ): 0.013 µM
IC50 (Fgr): 0.005 µM
IC50 (Fyn): 0.0005 µM
IC50 (Hck): 0.006 µM
IC50 (Lck): 0.0001 µM
IC50 (Lyn): 0.0004 µM
IC50 (Src): 0.001 µM
IC50 (Yes): 0.0002 µM
solubility [2]: 25 mg/mL and 48.79 mM

Compound: COc1cccc2c1C(=O)c1c(O)c3c(c(O)c1C2=O)C[C@@](O)(C(=O)CO)C[C@@H]3O[C@H]1C[C@H](N)[C@H](O)[C@H](C)O1.Cl [Doxorubicin (hydrochloride)]
1-D Distance.npi (Rlig1-AMP; MedChemExpress library): 103.376
1-D Distance (Rlig1-AMP; [6]): 134
Raw data [w Enyzm] (Rlig1-AMP): 1247
IC50 [3]: 0.8 µM

Compound: CN(C)C/C=C/C(=O)Nc1ccc(C(=O)N[C@@]2(C)CCC[C@@H](Nc3ncc(Cl)c(-c4c[nH]c5ccccc45)n3)C2)nc1 [Mevociclib]
1-D Distance.npi (Rlig1-AMP; MedChemExpress library): 95.3899
1-D Distance (Rlig1-AMP; [6]): 561
Raw data [w Enyzm] (Rlig1-AMP): 5749
Raw data [w/o Enzym] (Rlig1-AMP): 5188
Ki (CDK7): 0.0174 µM

Compound: CC(=O)O.Cn1cc(C2=C(c3cn(CCCN)c4ccccc34)C(=O)NC2=O)c2ccccc21 [Bisindolylmaleimide VIII (acetate)]
1-D Distance.npi (Rlig1-AMP; MedChemExpress library): 70.0569
1-D Distance (Rlig1-AMP; [6]): 1909
Raw data [w Enyzm] (Rlig1-AMP): 2831
Raw data [w/o Enzym] (Rlig1-AMP): 4740
IC50 (rat brain PKC): 0.158 µM
IC50 (PKC-α): 0.053 µM
IC50 (PKC-βI): 0.195 µM
IC50 (PKC-βII): 0.163 µM
IC50 (PKC-γ): 0.213 µM
IC50 (PKC-ε): 0.175 µM

Compound: COCC(=O)O[C@]1(CCN(C)CCCc2nc3ccccc3[nH]2)CCc2cc(F)ccc2[C@@H]1C(C)C.Cl.Cl [Mibefradil (dihydrochloride)]
1-D Distance.npi (Rlig1-AMP; MedChemExpress library): 70.2795
1-D Distance (Rlig1-AMP; [6]): 1786
Raw data [w Enyzm] (Rlig1-AMP): 9508
Raw data [w/o Enzym] (Rlig1-AMP): 11294
IC50 (T-type Ca2+ channels): 2.7 µM
IC50 (L-type currents): 18.6 µM

Compound: COc1ccc2[nH]c(O)c(C=c3ccc4c(c3)N=NC=4/C=C/c3ccc(N4CCN(C)CC4)nc3)c2c1.Cl.Cl [(1E)-CFI-400437 (dihydrochloride)]
1-D Distance.npi (Rlig1-AMP; MedChemExpress library): 102.026
1-D Distance (Rlig1-AMP; [6]): 187
Raw data [w Enyzm] (Rlig1-AMP): 4069
Raw data [w/o Enzym] (Rlig1-AMP): 3882
IC50 [4]: > 10 µM
IC50 (Aurora A): 0.37 µM
IC50 (Aurora B): 0.21 µM
IC50 (KDR): 0.48 µM
IC50 (FLT-3): 0.18 µM

Compound: Cc1ccc(C(=O)Nc2ccc(S(=O)(=O)[O-])c3cc(S(=O)(=O)[O-])cc(S(=O)(=O)[O-])c23)cc1NC(=O)c1cccc(NC(=O)Nc2cccc(C(=O)Nc3cc(C(=O)Nc4ccc(S(=O)(=O)[O-])c5cc(S(=O)(=O)[O-])cc(S(=O)(=O)[O-])c45)ccc3C)c2)c1.[Na+].[Na+].[Na+].[Na+].[Na+].[Na+] [Suramin (sodium salt)]
1-D Distance.npi (Rlig1-AMP; MedChemExpress library): 85.8095
1-D Distance (Rlig1-AMP; [6]): 1150
Raw data [w Enyzm] (Rlig1-AMP): 13348
Raw data [w/o Enzym] (Rlig1-AMP): 14498
IC50 (SirT2): 1.15 µM
IC50 (SirT5): 22 µM
IC50 (DNA topoisomerase II): 5 µM
